Test results: patent US20230382926A1, “COMPOUNDS AND USES THEREOF” (The University of The West Indies, priority 2022, published 2023)

Experiments:
Experiment in all cases: Rescue concentration, modified checkerboard MIC adjuvant assay
Type in all cases: cell-based
[1] = test system: Enterobacter cloacae ATCC BAA-1143; conditions: E. cloacae ATCC BAA-1143
Method: (§1) Reference microorganisms as well as clinical strains used to evaluate the antimicrobial adjuvant properties of SP-6azaBIM 125 and SP-6azaBIM 136 are listed in Table 3. Clinical strains of bacteria were kindly provided by the Faculty of Medical Sciences, UWI, St. Augustine, Trinidad. All bacterial cultures were cryopreserved in 30% glycerol/Brain Heart Infusion (BHI) at −80° C. Cultures were revived on BHI agar (Oxoid Ltd, England) and maintained at 4° C. until needed.
(§2) Prior to each experiment, cultures were streaked onto clean BHI agar plates and incubated at 35° C. for 24 hours. Colonies of the respective cultures were selected and inoculated in phosphate buffer saline (pH 7.5) to a 0.5 McFarland turbidity standard (equivalent to 10^8 CFU mL^−1). For inhibitory studies the bacterial suspensions were diluted 1:100 in cation-adjusted Mueller Hinton Broth (ca-MHB) (Oxoid Ltd, England). Fastidious bacteria including Streptococcus pneumoniae, Haemophilus infuenzae and Clostridium difficile were maintained on BHI agar with 5% defibrinated sheep blood and diluted in ca-MHB with 5% defibrinated sheep blood.
(§3) Antibiotic powders used in this study were purchased from Sigma Aldrich Ltd. (WI, USA). Antibiotic stock solutions were made at 50 mg mL^−1 according to Andrews (2001) and working solutions were prepared 24 h before use and stored at 4° C.
(§4) HCl salts of the of the SP-azaBIM test compounds were prepared prior to testing and stored at 4° C. Working preparations of each compound were made to 1 mg/mL in sterile deionised water.
(§5) The antibiotic adjuvant activity of the SPazaBIMs were evaluated in combination with representative antibiotics (representing 13 antibiotic classes) against the 19 pathogens strains listed in Table 3. To assess the adjuvant properties of the SP-azaBIM molecules, a modified checkerboard minimum inhibitory concentration assay was used. A fixed concentration of the respective antibiotic (susceptible breakpoint concentration) was mixed with a twofold dilution series of the test SP-azaBIM (FIG. 1). This was to determine the concentration of SP-azaBIM needed potentiate the antibiotic at a clinically susceptible breakpoint concentration. Antibiotic susceptible breakpoint concentrations for the respective bacteria were determined using Clinical Laboratory Standards Institute (CLSI) criteria M100 ED31.
(§6) In this study, only those antibiotics to which the bacterial was classed as resistant were included in the adjuvant assays. In this assay we recorded the rescue concentration of the SP-BIM for a respective antibiotic. The rescue concentration was defined as the concentration of the adjuvant that reduces the minimum inhibitory concentration (MIC) of an antibiotic to the susceptibility breakpoint.
(§7) Immediately prior to testing, the respective antibiotic and SP-azaBIM was dissolved in sterile deionised water at 20× the required test concentration. Each microtiter well was then inoculated with 180 μl of bacterial inoculum of 10^6 CFU/ml in ca-MHB, and 10 μl each if the antibiotic and SP-azaBIM was added to the plates. These plates were then incubated at 35° C. for 24 h under aerobic conditions. A similar method was followed for the fastidious pathogens except that they were cultured in ca-MHB with 5% sheep blood and 5% CO2.
(§8) Bacterial growth was visually inspected after the incubation period and the rescue concentration of the test SP-azaBIM was determined as the lowest concentration of the compound needed to reduce bacterial growth by 99.99% at the susceptible breakpoint concentration of the antibiotic. For example, CLSI states that Pseudomonas aeruginosa is susceptible to the Imipenem if the MIC is ≤2 μg mL^−1. If the bacteria can tolerate this concentration in vitro, then the bacteria has an intermediate or absolute resistance toward that antibiotic. […]

[2] = test system: Stenotrophomonas maltophilia MDR 7785; conditions: S. maltophilia MDR 7785
Method: as §1, §2, §3, §4, §5, §6, §7, §8

[3] = test system: Escherichia coli ATCC 35150; conditions: E. coli ATCC 35150
Method: as §1, §2, §3, §4, §5, §6, §7, §8

[4] = test system: Streptococcus pneumoniae ATCC 49619; conditions: S. pneumoniae ATCC 49619
Method: as §1, §2, §3, §4, §5, §6, §7, §8

[5] = test system: Staphylococcus aureus ATCC BAA-2312; conditions: S. aureus ATCC BAA-2312
Method: as §1, §2, §3, §4, §5, §6, §7, §8

[6] = test system: Acinetobacter baumannii clinical isolate 9978; conditions: A. baumannii clinical isolate 9978
Method: as §1, §2, §3, §4, §5, §6, §7, §8

[7] = test system: Klebsiella pneumoniae ATCC BAA-2814; conditions: K. pneumoniae ATCC BAA-2814
Method: as §1, §2, §3, §4, §5, §6, §7, §8

[8] = test system: Pseudomonas aeruginosa MDR 5805; conditions: P. aeruginosa MDR 5805
Method: as §1, §2, §3, §4, §5, §6, §7, §8

[9] = Amp at susceptible breakpoint 8 μg mL^−1
[10] = Azi at susceptible breakpoint 16 μg mL^−1
[11] = Ceph at susceptible breakpoint 8 μg mL^−1
[12] = Chl at susceptible breakpoint 8 μg mL^−1
[13] = Col at susceptible breakpoint 8 μg mL^−1
[14] = Dox at susceptible breakpoint 4 μg mL^−1
[15] = Gen at susceptible breakpoint 4 μg mL^−1
[16] = Imi at susceptible breakpoint 1 μg mL^−1
[17] = Tet at susceptible breakpoint 4 μg mL^−1
[18] = Cef at susceptible breakpoint 8 μg mL^−1
[19] = Imi at susceptible breakpoint 2 μg mL^−1
[20] = Mero at susceptible breakpoint 2 μg mL^−1
[21] = Amox at susceptible breakpoint 8 μg mL^−1
[22] = Col at susceptible breakpoint 2 μg mL^−1
[23] = Pol B at susceptible breakpoint 2 μg mL^−1

Oc1ccc(C(c2c[nH]c3cnccc23)c2c[nH]c3cnccc23)cc1 [SP-6azaBIM 136, 4-(bis(1H-pyrrolo[2,3-c]pyridin-3-yl)methyl)phenol] was tested, and the “Rescue concentration, Amp (8)” value [1, 9] was 16 µg/mL, the “Rescue concentration, Azi (16)” value [1, 10] was 16 µg/mL and the “Rescue concentration, Ceph (8)” value [1, 11] was 16 µg/mL. For the same compound, the “Rescue concentration, Chl (8)” value [1, 12] was 32 µg/mL, the “Rescue concentration, Col (8)” value [1, 13] was 16 µg/mL and the “Rescue concentration, Dox (4)” value [1, 14] was 4 µg/mL. The “Rescue concentration, Gen (4)” value [1, 15] was 8 µg/mL, the “Rescue concentration, Imi (1)” value [1, 16] was 4 µg/mL and the “Rescue concentration, Tet (4)” value [1, 17] was 4 µg/mL. For the same compound, the “Rescue concentration, Cef (8)” value [2, 18] was 32 µg/mL, the “Rescue concentration, Ceph (8)” value [2, 11] was 64 µg/mL and the “Rescue concentration, Chl (8)” value [2, 12] was 16 µg/mL. For the same compound, the “Rescue concentration, Cip (2)” value ([2]; Cip at susceptible breakpoint 2 μg mL^−1) was 16 µg/mL, the “Rescue concentration, Gen (4)” value [2, 15] was 64 µg/mL and the “Rescue concentration, Imi (2)” value [2, 19] was 32 µg/mL. For the same compound, the “Rescue concentration, Mero (2)” value [2, 20] was 32 µg/mL, the “Rescue concentration, Tri (2)” value ([2]; Tri at susceptible breakpoint 2 μg mL^−1) was greater than 128 µg/mL and the “Rescue concentration, Amp (8)” value [3, 9] was 8 µg/mL. For the same compound, the “Rescue concentration, Cip (0.25)” value ([3]; Cip at susceptible breakpoint 0.25 μg mL^−1) was 16 µg/mL, the “Rescue concentration, Dox (4)” value [3, 14] was 4 µg/mL and the “Rescue concentration, Imi (1)” value [3, 16] was 4 µg/mL. The “Rescue concentration, Amox (2)” value ([4]; Amox at susceptible breakpoint 2 μg mL^−1) was greater than 128 µg/mL, the “Rescue concentration, Ery (0.25)” value ([4]; Ery at susceptible breakpoint 0.25 μg mL^−1) was greater than 128 µg/mL and the “Rescue concentration, Imi (0.12)” value ([4]; Imi at susceptible breakpoint 0.12 μg mL^−1) was greater than 128 µg/mL. The “Rescue concentration, Azi (2)” value ([5]; Azi at susceptible breakpoint 2 μg mL^−1) was greater than 128 µg/mL, the “Rescue concentration, Gen (4)” value [5, 15] was greater than 128 µg/mL and the “Rescue concentration, Pen (0.12)” value ([5]; Pen at susceptible breakpoint 0.12 μg mL^−1) was greater than 128 µg/mL. The “Rescue concentration, Tri (8)” value ([5]; Tri at susceptible breakpoint 8 μg mL^−1) was greater than 128 µg/mL, the “Rescue concentration, Van (2)” value ([5]; Van at susceptible breakpoint 2 μg mL^−1) was 128 µg/mL and the “Rescue concentration, Amox (8)” value [6, 21] was 16 µg/mL. The “Rescue concentration, Cef (8)” value [6, 18] was 32 µg/mL, the “Rescue concentration, Col (2)” value [6, 22] was 64 µg/mL and the “Rescue concentration, Gen (4)” value [6, 15] was 16 µg/mL. For the same compound, the “Rescue concentration, Imi (2)” value [6, 19] was 2 µg/mL, the “Rescue concentration, Mero (2)” value [6, 20] was 32 µg/mL and the “Rescue concentration, Pol B (2)” value [6, 23] was 64 µg/mL. For the same compound, the “Rescue concentration, Amox (8)” value [7, 21] was 16 µg/mL, the “Rescue concentration, Amp (8)” value [7, 9] was 32 µg/mL and the “Rescue concentration, Aze (4)” value ([7]; Aze at susceptible breakpoint 4 μg mL^−1) was 4 µg/mL. The “Rescue concentration, Azi (16)” value [7, 10] was 16 µg/mL, the “Rescue concentration, Cef (16)” value ([7]; Cef at susceptible breakpoint 16 μg mL^−1) was 8 µg/mL and the “Rescue concentration, Ceph (8)” value [7, 11] was 16 µg/mL. The “Rescue concentration, Chl (8)” value [7, 12] was 32 µg/mL, the “Rescue concentration, Col (8)” value [7, 13] was 16 µg/mL and the “Rescue concentration, Dox (4)” value [7, 14] was 4 µg/mL. The “Rescue concentration, Gen (4)” value [7, 15] was 4 µg/mL, the “Rescue concentration, Imi (1)” value [7, 16] was 4 µg/mL and the “Rescue concentration, Tet (4)” value [7, 17] was 4 µg/mL. The “Rescue concentration, Amox (8)” value [8, 21] was 2 µg/mL, the “Rescue concentration, Col (2)” value [8, 22] was 4 µg/mL and the “Rescue concentration, Gen (4)” value [8, 15] was 4 µg/mL. For the same compound, the “Rescue concentration, Imi (2)” value [8, 19] was 2 µg/mL, the “Rescue concentration, Mero (2)” value [8, 20] was 2 µg/mL and the “Rescue concentration, Pol B (2)” value [8, 23] was 4 µg/mL.
